Experimental findings from US12053529B2, “Amino-reactive positively charged ATRP initiators that maintain their positive charge during synthesis of biomacro-initiators” (Carnegie Mellon University, priority 2018, dated 2024) are described below.

Starred links: 1 amine or outer side, 2 acyl side, 3 side chain; linkers in the order of their positions; H or OH if unused. Residues, ends and D or L forms follow the SMILES beside them. *: point of attachment. pNA = O=[N+]([O-])c1ccc(N*)cc1; Suc = O=C(CCC(=O)[*:2])[*:1]

Test [1] concerns the target α-chymotrypsin (CT) from bovine pancreas, CT-neutral initiator (CT(N)) (Bos taurus, UniProt P00766). The test can be described thus: Michaelis-Menten kinetics, Suc-AAPF-pNA hydrolysis, CT-neutral initiator. Particulars: pH 8, 37° C.; CT-neutral initiator vs native CT. The format is biochemical. The procedure:
(§1) CT and Lysozyme were used as received. AChE and Uricase were dialyzed in 25 mM sodium phosphate (pH 7.0) using a 25 kDa molecular weight cutoff dialysis tube in a refrigerator for 24 hours and then lyophilized. Copper (II) chloride, sodium ascorbate, 1,1,4,7,10,10-hexamethyltriethylenetetramine (HMTETA), 2-bromo-2-methylpropionyl bromide, 3-(dimethylamino)-1-propylamine, N,N′-diisopropylcarbodimine, fluorescamine, acetylthiocholine iodide, 5,5′-dithiobis(2-nitrobenzoic acid) (DTNB) were purchased from Sigma Aldrich. 4-bromobutyric acid and N-hydroxysuccinimide were purchased from TCI USA (Portland, OR). Micro BCA assay kit was purchased from Thermo Fisher Scientific. […]
(§2) CT: N-succinyl-Ala-Ala-Pro-Phe-p-nitroanilide (Suc-AAPF-pNA; SEQ ID NO:1) was used as a substrate for CT. […] The initial substrate hydrolysis rate was measured in triplicate by recording the increase in absorbance at 412 nm over the first 60 seconds after mixing using a Lambda 2 Perkin Elmer ultraviolet-visible spectrometer equipped with a temperature-controlled cell holder at 37° C. Michaelis-Menten parameters were determined using nonlinear curve fitting of initial hydrolysis rate versus substrate concentration in GraphPad. […]

Test [2] has as its target α-chymotrypsin (CT) from bovine pancreas, CT-positive initiator (CT(+)) (Bos taurus, UniProt P00766). The test can be described thus: Michaelis-Menten kinetics, Suc-AAPF-pNA hydrolysis, CT-positive initiator. Type of test: biochemical. The note with it: pH 8, 37° C.; CT-positive initiator vs native CT. The protocol:
as §1, §2

Test [3] has as its target α-chymotrypsin (CT) from bovine pancreas, CT-neutral initiator-pCBMA (Bos taurus, UniProt P00766). The test can be described thus: Michaelis-Menten kinetics, Suc-AAPF-pNA hydrolysis, CT-neutral initiator-pCBMA. The format is biochemical. Particulars: pH 8, 37° C. The procedure:
as §1
(§3) CT-pCBMA and pSMA conjugate synthesis: A solution of monomer (230 mg for CBMA and 246 mg for SMA, 1.0 mmol respectively) and CT-initiator (23 mg for neutral and 25 mg for positive initiator, 10 μmol of initiator) in 100 mM sodium phosphate (20 mL, pH 7) was sealed and bubbled with nitrogen gas in an ice bath for 30 minutes. […] Conjugate CT content was determined by BCA assay as described elsewhere (Lee et al. 2005, supra). […]
(§4) CT: N-succinyl-Ala-Ala-Pro-Phe-p-nitroanilide (Suc-AAPF-pNA; SEQ ID NO:1) was used as a substrate for CT. […] Michaelis-Menten parameters were determined using nonlinear curve fitting of initial hydrolysis rate versus substrate concentration in GraphPad. […]

In test [4] the target is α-chymotrypsin (CT) from bovine pancreas, CT-positive initiator-pCBMA (Bos taurus, UniProt P00766). The test can be described thus: Michaelis-Menten kinetics, Suc-AAPF-pNA hydrolysis, CT-positive initiator-pCBMA. Type of test: biochemical. Particulars: pH 8, 37° C. The procedure: as §1, §3, §4
Test [5] concerns the target α-chymotrypsin (CT) from bovine pancreas, CT-positive initiator-pSMA (Bos taurus, UniProt P00766). As to the kind of experiment: Michaelis-Menten kinetics, Suc-AAPF-pNA hydrolysis, CT-positive initiator-pSMA. Type of test: biochemical. Particulars: pH 8, 37° C.; CT-positive initiator-pSMA vs CT-neutral initiator-pSMA. The procedure: as §1, §3, §4
Test [6] concerns the target α-chymotrypsin (CT) from bovine pancreas, CT-mixed initiator (average of 9 neutral and 5 positive initiators per CT) (Bos taurus, UniProt P00766). As to the kind of experiment: Michaelis-Menten kinetics, Suc-AAPF-pNA hydrolysis, CT-mixed initiator. Type of test: biochemical. The note with it: pH 8, 37° C. The protocol: (§5) CT and Lysozyme were used as received. AChE and Uricase were dialyzed in 25 mM sodium phosphate (pH 7.0) using a 25 kDa molecular weight cutoff dialysis tube in a refrigerator for 24 hours and then lyophilized. Copper (II) chloride, sodium ascorbate, 1,1,4,7,10,10-hexamethyltriethylenetetramine (HMTETA), 2-bromo-2-methylpropionyl bromide, 3-(dimethylamino)-1-propylamine, N,N′-diisopropylcarbodimine, fluorescamine, acetylthiocholine iodide, 5,5′-dithiobis(2-nitrobenzoic acid) (DTNB) were purchased from Sigma Aldrich. 4-bromobutyric acid and N-hydroxysuccinimide were purchased from TCI USA (Portland, OR). Micro BCA assay kit was purchased from Thermo Fisher Scientific.
as §2, with “CT. Substrate (0-20 mg/mL in DMSO, 30 μL) was added to a 1.5 mL cuvette with sodium phosphate buffer (pH 8, 100 mM).” for “CT.”

In test [7] the target is acetylcholinesterase (AChE) from Electrophorus electricus, positive initiator (+) (Electrophorus electricus, UniProt O42275). The test can be described thus: Michaelis-Menten kinetics, acetylthiocholine iodide hydrolysis, AChE-positive initiator. Particulars: AChE-positive initiator vs AChE-neutral initiator. The format is biochemical, Electrophorus electricus (electric eel). The protocol:
as §5
(§6) AChE: 100 μL of NHS-functionalized ATRP initiator solution in DMSO (12.7 μmol, 4.3 mg for neutral and 5.5 mg for positive initiator, respectively) was added to AChE solution (7 mg of AChE in 10 mL of 100 mM phosphate (pH 8.0)) and stirred at room temperature for 2 hours. […] The concentration of AChE initiator conjugates was determined using a Micro BCA Assay Kit.
AChE: Acetylthiocholine iodide (0-100 μL of 10 mM in 100 mM sodium phosphate buffer (pH 7.4)) and 10 μL of DTNB solution (50 mM in DMSO) was mixed with 100 mM sodium phosphate (980-880 μL, pH 7.4). […] Michaelis-Menten parameters were determined by nonlinear curve fitting of initial rate versus substrate concentration plots using Prism 7 software (GraphPad).

Test [8] concerns the target acetylcholinesterase (AChE) from Electrophorus electricus, neutral initiator (N)-pSMA (Electrophorus electricus, UniProt O42275). The test can be described thus: Michaelis-Menten kinetics, acetylthiocholine iodide hydrolysis, AChE (N)-pSMA. The format is biochemical, Electrophorus electricus (electric eel). Particulars: pH 7.4, 37° C., DTNB. The protocol:
as §5, §6, §3
AChE: Acetylthiocholine iodide (0-100 μL of 10 mM in 100 mM sodium phosphate buffer (pH 7.4)) and 10 μL of DTNB solution (50 mM in DMSO) was mixed with 100 mM sodium phosphate (980-880 μL, pH 7.4). […] The initial rate was monitored by recording the increasing in absorbance as 412 nm using an UV-VIS absorbance spectrometer with a temperature controlled cell folder at 37° C. Michaelis-Menten parameters were determined by nonlinear curve fitting of initial rate versus substrate concentration plots using Prism 7 software (GraphPad).

Sequence of acetylcholinesterase (AChE) from Electrophorus electricus, neutral initiator (N)-pSMA (O42275 24-633): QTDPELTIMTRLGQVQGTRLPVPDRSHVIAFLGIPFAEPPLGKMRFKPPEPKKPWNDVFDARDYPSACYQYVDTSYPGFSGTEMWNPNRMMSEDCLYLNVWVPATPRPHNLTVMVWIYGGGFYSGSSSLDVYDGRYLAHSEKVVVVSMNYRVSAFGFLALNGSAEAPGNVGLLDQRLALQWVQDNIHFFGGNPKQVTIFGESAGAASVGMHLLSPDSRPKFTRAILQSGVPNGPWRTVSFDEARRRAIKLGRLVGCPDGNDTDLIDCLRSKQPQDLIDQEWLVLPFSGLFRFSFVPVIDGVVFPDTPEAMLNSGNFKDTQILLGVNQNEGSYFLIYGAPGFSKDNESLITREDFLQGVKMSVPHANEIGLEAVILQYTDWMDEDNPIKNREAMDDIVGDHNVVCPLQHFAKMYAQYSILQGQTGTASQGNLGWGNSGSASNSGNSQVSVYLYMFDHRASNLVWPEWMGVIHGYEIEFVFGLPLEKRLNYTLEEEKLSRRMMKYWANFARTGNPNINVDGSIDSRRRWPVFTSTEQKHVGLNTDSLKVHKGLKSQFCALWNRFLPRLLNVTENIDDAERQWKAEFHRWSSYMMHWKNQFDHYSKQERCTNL
Sequence of acetylcholinesterase (AChE) from Electrophorus electricus, positive initiator (+) (O42275 24-633): as above

Regarding `C[C@H](NC(=O)CCC(=O)O)C(=O)N[C@@H](C)C(=O)N1CCC[C@H]1C(=O)N[C@@H](Cc1ccccc1)C(=O)Nc1ccc([N+](=O)[O-])cc1` [Suc-AAPF-pNA, N-succinyl-Ala-Ala-Pro-Phe-p-nitroanilide] (Suc-AAPF-pNA), the “change in KM versus native CT” value in test [1] and in test [2] was “decrease in KM by half” in each case. For the same compound, the kcat/KM in test [3] was 300000 ± 10000 M⁻¹ s⁻¹; in test [4] (CT-positive initiator-pCBMA), 420000 ± 20000 M⁻¹ s⁻¹; in test [6], 200000 ± 10000 M⁻¹ s⁻¹. Further, the “overall catalytic efficiency versus native CT” value in test [4] (CT-positive initiator-pCBMA vs native CT) is recorded as “nearly double that of native CT”. The “overall activity (kcat and KM) versus CT-neutral initiator-pSMA” value in test [5] was approximately 20 fold. The kcat in test [6] came out at 16.7 ± 0.4 s⁻¹.

As to `CC(=O)SCC[N+](C)(C)C.[I-]` [acetylthiocholine iodide], in test [7], the “KM increase versus AChE-neutral initiator” value is “about 2.4 ×”. In addition, in test [8], the KM entry is on record as “undetectable”, the turnover number (kcat) result is reported as “undetectable” and the kcat/KM entry was “undetectable”.

For orientation: kcat/KM means the second-order rate constant that governs catalysis at low substrate concentration. One may read the kcat as the number of substrate molecules converted per active site and unit of time at saturation.
